Data: US8507436B2, “Peptides derived from plasminogen activator inhibitor-1 and uses thereof” (D-Pharm Ltd., priority 2007, dated 2013)
Values joined by “and” are separate entries in the source; they are usually repeats but may differ in a detail not shown here. Equal values may be shown once.

Columns and labels:
[1] = biological target: T1, tPA (Homo sapiens, UniProt P00750); type: in vivo; conditions: rats
T1 construct: purchased Genentech, Inc., South San Francisco, Calif
Description: MCA occlusion. All studies were conducted in accordance with the NIH Guide for the Care and Use of Laboratory Animals. Sprague-Dawley rats (mean weight 250 g) were fed on regular chow and allowed free access to drinking water. Rats were anesthetized with an i.p. injection of ketamine (75 mg per ml, Apharmo) and xylazine (5 mg per ml, Bayer). Body temperature was maintained at 37±0.5° C. by means of a heating lamp. Focal cerebral ischemia was induced by occluding the left MCA with an intraluminal filament (Ding-Zhou, L. et al. 2002 Eur J. Pharmacol. 457, 137-146). Briefly, the left common and external carotid arteries were isolated through a midline neck incision and ligated with a 4-0 silk suture (Ethicon). An arteriotomy was fashioned in the common carotid artery just proximal to the carotid bifurcation. […] Twenty-four hours later. rats were euthanized with an overdose of Nembutal and the infarct size was measured.
Measuring infarct volume The brain was removed and sectioned coronally into 2-mm segments. […] The sections were photographed and the infarct area measured using the NIH computer image analysis program. […] Differences were analyzed by ANOVA followed by the t-test and the level of significance was corrected using a post-hoc analysis with the Bonferroni test. […]
The effect of the PAI-1 derived peptides on infarct size after transient mechanical obstruction of the MCA in rats treated with tPA was examined. tPA injected intravenously two hours after establishing reperfusion increased the infarct size from 16±4.6 to 48.333±8.7 mm3 (FIG. 2). […] The infarct size measured in the presence of peptide 206 was 20.333±4.8 while in the presence of peptide 218 N its size was only 13.3±3.6 mm3 (P<0.05; FIG. 2).
The effect of the PAI-1 derived peptides on infarct size was determined in rats that underwent MCA and reperfusion and four hours later treated with tPA alone or together with PAI-1 derived peptides. tPA injected intravenously four hours after establishing reperfusion increased the infarct size from 68±7 to 77±9 mm3 (FIG. 7).

[2] = biological target: T1, tPA; assay: tPA-related mortality and intracranial hemorrhage after transient mechanical obstruction of the MCA in rats; type: in vivo
Description: MCA occlusion. All studies were conducted in accordance with the NIH Guide for the Care and Use of Laboratory Animals. Sprague-Dawley rats (mean weight 250 g) were fed on regular chow and allowed free access to drinking water. Rats were anesthetized with an i.p. injection of ketamine (75 mg per ml, Apharmo) and xylazine (5 mg per ml, Bayer). Body temperature was maintained at 37±0.5° C. by means of a heating lamp. Focal cerebral ischemia was induced by occluding the left MCA with an intraluminal filament (Ding-Zhou, L. et al. 2002 Eur J. Pharmacol. 457, 137-146). Briefly, the left common and external carotid arteries were isolated through a midline neck incision and ligated with a 4-0 silk suture (Ethicon). An arteriotomy was fashioned in the common carotid artery just proximal to the carotid bifurcation. A 4-0 nylon monofilament (Ethicon) was introduced through this incision into the internal carotid artery and advanced distal to the carotid bifurcation to occlude the origin of the MCA; the thread was carefully withdrawn 2 hours later. tPA alone at the indicated concentrations, tPA together with the PAI-1 derived peptides 206 (EEIIMD of SEQ ID NO: 11) or peptide 218 N (Ac-RMAPEEIIMDRPFLFVVR-amide of SEQ ID NO: 1) or peptide 218 O (Ac-RMAPEEIIMDRPFLYVVR-amide of SEQ ID NO: 2) were injected i.v. 2 hours after the thread had been withdrawn. Rats were returned to their cages after recovering from anesthesia. Twenty-four hours later. rats were euthanized with an overdose of Nembutal and the infarct size was measured.

[3] = tested on: tPA; assay: Brain water content after fluid percussion brain injury (FPI) in piglets; type: in vivo, pigs; conditions: for Brain water content after FPI in the presence of tPA: tPA 2 mg/kg i.v. with peptide 1 mg/kg i.v.
Description: (§1) Fluid Percussion Brain Injury (FPI) method. The method was performed as described by Armstead et al., Nat. Neurosci.
(§2) Brain water content Brain water content (BWC) was determined by measuring the wet and dry weights of the brain tissue and by using the formula BWC=wet weight-dry weight/wet weight×100. Data were analyzed by analysis of variants with a Student-Newman-Keuls post-hoc test. A P<0.05 was considered significant.
(§3) Brain water content (BWC) was determined by measuring the wet and dry weights of the brain tissue and by using the formula BWC=wet weight-dry weight/wet weight×100. Data were analyzed by analysis of variants with a Fischer's post-hoc test. A P<0.05 was considered significant.

[4] = tested on: tPA; assay: Infarct volume after embolic stroke in rats; type: in vivo
Description: (§4) Embolic stroke Embolic stroke was induced according to the previously reported microembolism model (Bdeir, K. et al. 2000 Blood 96, 1820-1826) as adapted to stroke (Atochin, D. N. et al. 2004. Stroke 35, 2177-2182). Microemboli were prepared, dissected, and homogenized as described (Bdeir K et al. 2000, supra). The suspension of microemboli used to induce stroke contained 1.4×10^6 microparticles, with an average diameter of 3 μm.
(§5) Experiments were performed in rats as described previously (Ding-Zhou, L. et al. 2002, supra) with some modifications. Briefly, Sprague-Dawley rats (mean weight 250 g) were anesthetized by i.p. injection of ketamine (75 mg per mL) and xylazine (5 mg per mL). The carotid artery was exposed and an arteriotomy was performed. A polyethylene catheter with an inner diameter of […] was used to inject the solution of microemboli (1.4×10^6 particles) directly into the exposed internal carotid artery. The catheter was flushed with 0.25 ml normal saline and carefully withdrawn. After washing the surgical site with saline containing 1 mM hexacapron, the incision was closed.
(§6) After induction of embolic stroke, rats were divided into 4 treatment groups (n=7 each): tPA (6 mg per kg) or tPA (6 mg per kg) with either peptide 206, peptide 218 O, or peptide 218 N (1 mg per kg) in normal saline were injected i.v., 2 hours after the catheter was withdrawn. Control groups received a vehicle consisting of normal saline alone or peptides 206 or 218 (1 mg per kg) in saline. 50% of the dose was given as a bolus injection and the remainder was infused over 60 min. The rats were returned to their cages after recovering from anesthesia. Twenty-four hours after the procedure, the rats were euthanized with an overdose of Nembutal and the infarct size was measured.
(§7) Measuring infarct volume The brain was removed and sectioned coronally into 2-mm segments. Brain slices were immersed in 2% 2,3,5-triphenyltetrazolium chloride (TTC) in saline, incubated for 30 minutes at 37° C. and placed in 4% formalin/PBS overnight. The area of infarction remains unstained, appearing white, making it clearly distinguishable from stained viable tissue. The sections were photographed and the infarct area measured using the NIH computer image analysis program. Infarct volume was defined as the sum of the unstained areas of all sections, multiplied by their thickness and expressed in cubic millimeters. Data are represented as mean±SE. Differences were analyzed by ANOVA followed by the t-test and the level of significance was corrected using a post-hoc analysis with the Bonferroni test. Statistical significance was set at P<0.05.
(§8) The effect of PAI-1 derived peptides on tPA treated rats after embolic stroke induced by injection of microthrombi directly into the MCA was also examined. […]

[5] = biological target: T2, tPA (Sus scrofa, UniProt Q8SQ23); assay: Brain water content after fluid percussion brain injury (FPI) in piglets; type: in vivo, pigs; conditions: peptide 1 mg/kg i.v. 30 min prior to FPI, no exogenous tPA, normal 78.87±0.75%, vehicle after injury 84.1±0.45%
T2 construct: purchased Genentech, Inc., South San Francisco, Calif
T2 sequence (Q8SQ23 36-562): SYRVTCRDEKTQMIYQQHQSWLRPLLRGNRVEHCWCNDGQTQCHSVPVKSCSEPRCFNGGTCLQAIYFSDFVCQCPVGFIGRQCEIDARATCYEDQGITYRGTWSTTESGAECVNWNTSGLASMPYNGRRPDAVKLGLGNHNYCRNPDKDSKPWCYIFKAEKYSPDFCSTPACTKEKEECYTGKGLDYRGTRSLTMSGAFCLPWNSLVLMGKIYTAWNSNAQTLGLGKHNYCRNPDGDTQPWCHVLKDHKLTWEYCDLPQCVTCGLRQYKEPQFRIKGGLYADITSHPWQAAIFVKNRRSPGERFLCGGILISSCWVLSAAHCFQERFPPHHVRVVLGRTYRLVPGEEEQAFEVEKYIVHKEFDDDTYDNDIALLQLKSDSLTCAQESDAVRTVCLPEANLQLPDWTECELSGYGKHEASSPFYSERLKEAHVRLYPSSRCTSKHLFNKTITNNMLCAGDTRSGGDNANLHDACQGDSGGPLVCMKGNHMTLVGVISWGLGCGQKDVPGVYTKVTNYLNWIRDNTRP
Description: as §1, §2, §3

[6] = biological target: T3, tPA (Rattus norvegicus, UniProt P19637); assay: Infarct volume after embolic stroke in rats; type: in vivo; conditions: peptide 1 mg per kg in saline, absence of tPA
T3 construct: purchased Genentech, Inc., South San Francisco, Calif
T3 sequence (P19637 33-559): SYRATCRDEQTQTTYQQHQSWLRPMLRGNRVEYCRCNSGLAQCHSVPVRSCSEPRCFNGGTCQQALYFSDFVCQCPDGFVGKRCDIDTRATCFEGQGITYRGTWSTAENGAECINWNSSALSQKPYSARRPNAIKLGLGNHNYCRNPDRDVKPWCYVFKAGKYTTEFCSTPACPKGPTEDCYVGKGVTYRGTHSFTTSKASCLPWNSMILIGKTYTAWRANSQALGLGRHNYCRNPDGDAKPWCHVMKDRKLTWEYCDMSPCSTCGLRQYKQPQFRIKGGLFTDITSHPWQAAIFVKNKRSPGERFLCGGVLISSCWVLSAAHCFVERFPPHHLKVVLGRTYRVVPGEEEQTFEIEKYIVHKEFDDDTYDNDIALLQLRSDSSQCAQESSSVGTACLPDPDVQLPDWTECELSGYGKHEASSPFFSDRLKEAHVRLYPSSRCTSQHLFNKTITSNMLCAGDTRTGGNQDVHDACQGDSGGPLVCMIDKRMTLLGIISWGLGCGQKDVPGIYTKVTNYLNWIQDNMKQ
Description: as §4, §5, §6, §7, §8

[7] = biological target: T1, tPA; assay: tPA-induced opening of the BBB in mice (Evans blue); type: in vivo; conditions: C57/B16 mice, 10 mg/kg tPA with 10 μM peptide i.v.
Excerpt: The brain content of Evans blue was quantified by absorbance at 620 nm.

T1 sequence (P00750 36-562): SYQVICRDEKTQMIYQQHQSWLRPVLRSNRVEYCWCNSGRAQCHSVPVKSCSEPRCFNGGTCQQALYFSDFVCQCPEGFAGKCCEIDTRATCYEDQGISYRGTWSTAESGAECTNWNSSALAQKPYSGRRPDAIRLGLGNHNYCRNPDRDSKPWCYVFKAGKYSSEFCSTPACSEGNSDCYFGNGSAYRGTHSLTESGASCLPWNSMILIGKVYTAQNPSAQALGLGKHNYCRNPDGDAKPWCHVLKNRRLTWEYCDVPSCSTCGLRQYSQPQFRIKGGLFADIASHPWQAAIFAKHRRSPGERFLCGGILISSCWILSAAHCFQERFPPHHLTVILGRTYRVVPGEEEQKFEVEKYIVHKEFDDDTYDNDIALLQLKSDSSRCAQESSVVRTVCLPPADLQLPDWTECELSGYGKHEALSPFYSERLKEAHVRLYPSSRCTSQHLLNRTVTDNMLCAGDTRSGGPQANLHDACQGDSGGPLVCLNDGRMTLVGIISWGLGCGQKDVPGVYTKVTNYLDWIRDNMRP

| Molecule | Infarct size, tPA alone four hours after reperfusion ([1]; MCA and reperfusion, tPA i.v. four hours later, control 68±7) | Infarct size, tPA alone ([1]; mechanical MCA obstruction, tPA i.v. two hours after reperfusion, saline control 16±4.6) | Mortality, tPA alone, in per cent from Table 1 ([2]; 6 out of 21) | Mortality (dead rats/rats in group) ([2]; Table 1, control 1/12) | Mortality rate, tPA alone (FIG. 6) ([2]; mechanical MCA obstruction, tPA i.v. two hours after reperfusion, saline control 7.7%) | Brain water content after FPI, tPA alone ([3]; tPA 2 mg/kg i.v. without peptide) | Decrease of infarct volume by tPA alone ([4]; tPA 6 mg per kg i.v. two hours after embolization) | Infarct size, tPA with peptide four hours after reperfusion (FIG. 7) ([1]; MCA and reperfusion, tPA co-injected with peptide four hours later) | Absolute mortality, tPA co-injected with peptide (FIG. 6A) ([2]; mechanical MCA obstruction, tPA alone 28.6%) | Reduction of the tPA associated increase in mortality (FIG. 6B) ([2]; mechanical MCA obstruction, tPA with peptide) | tPA-induced mortality with peptide, in per cent from Table 1 ([2]; tPA plus peptide, tPA alone ~29%) | Brain water content after FPI in the presence of tPA [3] | Brain water content after FPI [5] | Infarct volume, tPA with peptide ([4]; tPA 6 mg per kg with peptide 1 mg per kg i.v. two hours after embolization) | Post-stroke infarct size, peptide alone [6] | Prevention of tPA-induced loss of BBB integrity [7] |
| --- | --- | --- | --- | --- | --- | --- | --- | --- | --- | --- | --- | --- | --- | --- | --- | --- |
| tPA: Recombinant tPA purchased from Genentech; thrombolytic agent, tissue-type plasminogen activator | 77±9 mm3 | 48.333±8.7 mm3 | ~29% | 6 out of 21 and 6/21 | 28.6% | 87.12±0.6% | approximately 48% |  |  |  |  |  |  |  |  |  |
| CC[C@H](C)[C@H](NC(=O)[C@H](CCC(=O)O)NC(=O)[C@H](CCC(=O)O)NC(=O)[C@@H]1CCCN1C(=O)[C@H](C)NC(=O)[C@H](CCSC)NC(=O)[C@H](CCCNC(=N)N)NC(C)=O)C(=O)N[C@H](C(=O)N[C@@H](CCSC)C(=O)N[C@@H](CC(=O)O)C(=O)N[C@@H](CCCNC(=N)N)C(=O)N1CCC[C@H]1C(=O)N[C@@H](Cc1ccccc1)C(=O)N[C@@H](CC(C)C)C(=O)N[C@@H](Cc1ccccc1)C(=O)N[C@H](C(=O)N[C@H](C(=O)N[C@@H](CCCNC(=N)N)C(N)=O)C(C)C)C(C)C)[C@@H](C)CC [peptide 218 N, Ac-RMAPEEIIMDRPFLFVVR-amide] |  |  |  |  |  |  |  | significantly stronger than that of 218 O and 206 | 15.4% | 63% | 9% | 79.643±0.51% | 79.343±0.25% | smaller infarct volumes than those treated with tPA and peptide 206 or tPA and peptide 218 O | significantly reduced post-stroke infarct size | about 90% |
| EEIIMD [peptide 206, 6-mer peptide corresponding to amino acid residues 373-378 of human PAI-1] |  |  |  |  |  |  |  |  |  |  |  | 82.351±0.55% | 81.379±0.3% |  | little effect on infarct size | no effect |
